In PMC7456477, “Pharmacokinetic Study of Thirteen Ingredients after the Oral Administration of Flos Chrysanthemi Extract in Rats by UPLC-MS/MS” (BioMed Research International, 2020):

Columns and labels:
[1] = Pharmacokinetic study in rat plasma after oral administration of Flos Chrysanthemi extract (UPLC-MS/MS); type: in vivo, Sprague-Dawley rats; conditions: rats, oral Flos Chrysanthemi extract 10 g/kg; for AUC(0-inf) / Cmax / Tmax / half-life / AUC / k el: male, Sprague-Dawley, rat; for AUC: read-out: AUC(0 − tn); for k el: read-out: Ke (converted)
Experimental: Six male Sprague-Dawley rats (250 ± 5 g) were purchased from Huafukang Bioscience Co., Inc. (Beijing, China). The rats were adapted to the facility for a week. Before the experiments, rats were fasted for 12 h, although drinking water was readily accessible. Flos Chrysanthemi extract was dissolved in CMC-Na aqueous solution and orally administered to the animals once at 10 g/kg. Blood samples (220 μL) were taken from the orbital venous plexus of rats at 0, 0.03, 0.08, 0.17, 0.25, 0.5, 1, 2, 4, 6, 8, 10, 12, and 24 h after extract administration. Blood samples were promptly centrifuged at 6000 rpm for 10 min, and plasma samples were collected. The obtained plasma was stored at -80°C until analysis. “Drug and Statistics 3.0” software (Medical College of Wannan, China) was used to calculate pharmacokinetic parameters. The animal protocol was approved by the Animal Ethics Committee of Tianjin University of Traditional Chinese Medicine (TCM-LAEC20190056).
Plasma samples from rats orally administered with Flos Chrysanthemi extract (10.0 g/kg) were analysed with UPLC-MS/MS. Plasma concentration-time curves are shown in Figure 3, and the primary pharmacokinetic parameters of each analyte are summarized in Table 6.

[2] = Stability of analytes in rat plasma (QC samples under four storage conditions); type: in vitro ADME; conditions: n = 6
Experimental: To study the stability of all compounds in rat plasma, low, medium, and high concentrations of QC samples were tested under the following test conditions: stored at an autosampler for 12 hours, stored at room temperature for 6 hours, put through three freeze/thaw cycles, and stored at -80°C for 14 days. Three QC concentrations were tested for each of the above conditions.
The stability of all 13 analytes during sample collection and processing was evaluated with the various storage conditions being tested on spiked plasma samples at three QC concentrations.

[3] = spiked concentration 1000 ng/mL

Row | Compound | Detection in plasma over the sampling time ([1]; result in words) | Measured concentration, -80°C for 14 days ([2]; spiked concentration 5 ng/mL) | Measured concentration, Autosampler for 12 h ([2]; spiked concentration 5 ng/mL) | Measured concentration, Room temperature for 6 h ([2]; spiked concentration 5 ng/mL) | Measured concentration, Three freeze-thaw cycles ([2]; spiked concentration 5 ng/mL) | Measured concentration, -80°C for 14 days ([2]; spiked concentration 50 ng/mL) | Measured concentration, Autosampler for 12 h ([2]; spiked concentration 50 ng/mL) | Measured concentration, Room temperature for 6 h ([2]; spiked concentration 50 ng/mL) | Measured concentration, Three freeze-thaw cycles ([2]; spiked concentration 50 ng/mL) | Measured concentration, -80°C for 14 days [2, 3] | Measured concentration, Autosampler for 12 h [2, 3] | Measured concentration, Room temperature for 6 h [2, 3] | Measured concentration, Three freeze-thaw cycles [2, 3] | AUC(0-inf) ([1]; plasma, n = 6) | Cmax ([1]; plasma, n = 6) | Tmax ([1]; plasma, n = 6) | half-life ([1]; plasma, n = 6) | AUC ([1]; plasma, n = 6) | k el ([1]; plasma, n = 6) | T max ([1]; plasma, n = 6)
1 | COc1ccc(-c2cc(=O)c3c(O)cc(O)cc3o2)cc1 [Acacetin] | detected only at the first few blood sampling points | 4.5 ± 0.1 ng/mL | 5.3 ± 0.1 ng/mL | 4.6 ± 0.1 ng/mL | 5.8 ± 0.1 ng/mL | 50.5 ± 0.7 ng/mL | 47.8 ± 0.7 ng/mL | 50.3 ± 0.8 ng/mL | 50.2 ± 5.7 ng/mL | 977.4 ± 57.9 ng/mL | 1030.3 ± 4.9 ng/mL | 1126.2 ± 9.5 ng/mL | 1032.7 ± 5.6 ng/mL |  |  |  |  |  |  | 
2 | O=c1cc(-c2ccc(O)cc2)oc2cc(O[C@@H]3O[C@H](CO)[C@@H](O)[C@H](O)[C@H]3O)cc(O)c12 [Apigenin 7-glucoside] |  | 5.1 ± 0.2 ng/mL | 4.3 ± 0.1 ng/mL | 5.9 ± 0.1 ng/mL | 5.6 ± 0.4 ng/mL | 51.1 ± 0.4 ng/mL | 44.5 ± 0.7 ng/mL | 50.5 ± 1.0 ng/mL | 53.7 ± 0.6 ng/mL | 1108.3 ± 25.6 ng/mL | 1077.6 ± 9.6 ng/mL | 1086.7 ± 12.9 ng/mL | 1112.8 ± 7.2 ng/mL | 1470 ± 614 ng·h/mL | 96.4 ± 24.8 ng/mL | 41.4 ± 29.4 min | 832 ± 609 min | 1320 ± 489 ng·h/mL | 6.94e-05 s⁻¹ | 
3 | O=c1cc(-c2ccc(O)cc2)oc2cc(O)cc(O)c12 [Apigenin] |  | 5.2 ± 0.1 ng/mL | 5.4 ± 0.2 ng/mL | 4.9 ± 0.1 ng/mL | 5.7 ± 0.1 ng/mL | 49.3 ± 1.9 ng/mL | 45.8 ± 1.3 ng/mL | 49.3 ± 1.1 ng/mL | 50.5 ± 0.4 ng/mL | 1063.8 ± 62.8 ng/mL | 987.0 ± 11.4 ng/mL | 1112.4 ± 11.7 ng/mL | 1086.4 ± 17.6 ng/mL | 3090 ± 447 ng·h/mL | 302 ± 87.1 ng/mL | 30 min | 667 ± 426 min | 2900 ± 251 ng·h/mL | 2.5e-05 s⁻¹ | 
4 | O=C(/C=C/c1ccc(O)c(O)c1)O[C@@H]1C[C@](O)(C(=O)O)C[C@@H](O)[C@H]1O [Chlorogenic acid] |  | 5.2 ± 0.1 ng/mL | 5.1 ± 0.1 ng/mL | 5.8 ± 0.1 ng/mL | 5.8 ± 0.1 ng/mL | 44.4 ± 0.3 ng/mL | 43.5 ± 0.7 ng/mL | 49.7 ± 2.3 ng/mL | 54.7 ± 0.4 ng/mL | 1117.1 ± 2.0 ng/mL | 1084.8 ± 13.6 ng/mL | 1079.2 ± 8.3 ng/mL | 1123.5 ± 7.3 ng/mL | 494 ± 205 ng·h/mL | 194 ± 56.4 ng/mL |  | 12 ± 10.2 min | 426 ± 139 ng·h/mL | 0.00112 s⁻¹ | 15 ± 0 min
